# Reference: patent US20140357512A1, “HISTONE DEACETYLASE (HDAC) BIOMARKERS IN MULTIPLE MYELOMA” (priority 2013, published 2014)
# Test system: human myeloma cell line MM.1S
# Assay: SILAC acetylated-lysine peptide profiling, HDAC inhibitor vs DMSO (light/heavy ratio)
# Assay type: cell-based
# Text: An embodiment of the invention comprises utilizing the SILAC method in order to quantitate changes in protein expression between two or more populations of cells. The SILAC method is a technique based on mass spectrometry that detects differences in protein abundance among samples using non-radioactive isotopic labeling. The SILAC method is known in the art, and described in detail in Ong et al., “Stable Isotope Labeling by Amino Acids in Cell Culture, SILAC, as a Simple and Accurate Approach to Expression Proteomics”, Molecular & Cellular Proteomics, vol. 1, pp. 376-386 (2002), which is incorporated herein by reference in its entirety.
# Briefly, the SILAC method involves growing two populations of cells in cell culture. The first population of cells is grown in growth media containing normal amino acids (“normal media”). The second population of cells is grown in media lacking a standard essential amino acid (such as lysine), but is then supplemented with a non-radioactive, isotopically labeled form of that essential amino acid (such as lysine labeled with ^13C atoms, rather than normal ^12C atoms), which is called “heavy media”. When the two populations of cells are each growing in the medium, they incorporate the amino acids into all of their proteins. The growth of cells maintained in the heavy media is no different from that in normal media. All peptides containing the heavy amino acids are heavier than their normal counterparts. The cells from each of the two populations of cells are lysed. The lysates from each of the two cell populations are then combined. The combined cell lysates are then analyzed by mass spectrometry. Pairs of chemically identical peptides of different stable isotope composition can be differentiated in a mass spectrometer due to their difference in mass. The ratio of peak intensities in the mass spectrum for such peptide pairs reflects the abundance ratio for the two proteins.
# This example describes SILAC studies that were performed to compare the effects of three different HDAC inhibitors (Compound A, Compound B, and tubastatin A) to a control on a human multiple myeloma cell line. The HDAC inhibitors were also compared amongst themselves to determine differences in their effects.
# A human myeloma cell line MM.1S was grown using either ^12C (light) or ^13C (heavy) lysine containing culture medium. The “heavy” cells were treated with DMSO as the control, and the “light” cells were treated with a single HDAC inhibitor at 37° C. for 6 hours. The heavy and light cells were lysed, and the lysates were mixed in 1:1 ratio and digested with the protease trypsin. The acetylated lysine containing peptides (due to the action of the HDAC inhibitor) in the digested peptide pool were captured by a non-specific anti-acetylated lysine antibody cocktail (the antibodies identify both light and heavy acetylated peptides), and subjected to mass spectrometry analysis in order to identify thousands of individual peptides.
# Thousands of peptides were identified in pairs (^12C and ^13C) due to their known mass differences. The amino acid sequence and quantitative ratio (Light/Heavy) of a given peptide in two differentially treated cell lysates were then determined and annotated with their possible protein (gene) sources.
# As stated above, three HDAC inhibitors (Compound A, Compound B, and Tubastatin A) were used. Thus, the SILAC method was performed three times, with a different HDAC inhibitor compared to a control each time. Accordingly, there are three pairs of quantitative data in the table below, i.e., Compound A:DMSO, Compound B:DMSO, and Tubastatin A:DMSO. A cut-off of 1.30 fold of change (increase or decrease) was then used to determine “changed” or “+” in the table, and any peptides with a fold of change less than 1.3 fold were determined to be “unchanged” or “0” in the table. Those peptides that were not identified were marked as “NA” in the table. […]
smiles,measurement,setting,value
"O=C(NO)c1cnc(NC2(c3cccc(F)c3)CCCCC2)nc1 [Compound B, 2-((1-(3-fluorophenyl)cyclohexyl)amino)-N-hydroxypyrimidine-5-carboxamide]",L/H ratio of acetylated peptide (ac)AEK(ac)FDCHYCR,"SEQ ID NO: 725, four and a half LIM domains protein 1 isoform 5 [20], FHL1",0.00 log 2
same,L/H ratio of acetylated peptide […](ac)VIPK,"SEQ ID NO: 726, Endoplasmic reticulum resident protein 29 [48], ERP29",0.00 log 2
same,L/H ratio of acetylated peptide TITMK(ac)QLLR,"SEQ ID NO: 728, Branched-chain-amino-acid aminotransferase [281], BCAT2",0.00 log 2
same,L/H ratio of acetylated peptide SK(ac)FVLVK,"SEQ ID NO: 729, Endoplasmic reticulum resident protein 29 [54], ERP29",0.00 log 2
same,L/H ratio of acetylated peptide TVGQLYK(ac)EQLAK,"SEQ ID NO: 731, Isoform 1 of Myosin-9 [651], MYH9",0.00 log 2
same,L/H ratio of acetylated peptide AAETCQEPK(ac)EFR,"SEQ ID NO: 732, NADH dehydrogenase [ubiquinone] 1 alpha subcomplex assembly factor 4 [91], NDUFAF4",0.00 log 2
same,L/H ratio of acetylated peptide ILMEHIHK(ac)LK,"SEQ ID NO: 735, 60S ribosomal protein L19 [144], RPL19",0.00 log 2
same,L/H ratio of acetylated peptide K(ac)FDQLLAEEK,"SEQ ID NO: 737, Isoform 1 of Myosin-9 [1445], MYH9",0.00 log 2
same,L/H ratio of acetylated peptide FVEFDMK(ac)PVCK,"SEQ ID NO: 738, Isoform 2 of LIM and senescent cell antigen-like-containing domain protein 2 [326], LIMS2",0.00 log 2
same,L/H ratio of acetylated peptide KAEAQIAAK(ac)NLDK,"SEQ ID NO: 740, Aspartate aminotransferase mitochondrial [90], GOT2",0.00 log 2
same,L/H ratio of acetylated peptide ALCTGEK(ac)GFGYK,"SEQ ID NO: 744, Peptidyl-prolyl cis-trans isomerase F mitochondrial [86], PPIF",0.00 log 2
same,L/H ratio of acetylated peptide IYK(ac)SDGIK,"SEQ ID NO: 745, ADP/ATP translocase 2 [166], SLC25A5",0.00 log 2
same,L/H ratio of acetylated peptide VPK(ac)TAENFR,"SEQ ID NO: 748, Peptidyl-prolyl cis-trans isomerase D [43], PPID",0.00 log 2
same,L/H ratio of acetylated peptide VNCLDK(ac)FWHK,"SEQ ID NO: 749, Isoform 1 of LIM and SH3 domain protein 1 [23], LASP1",0.00 log 2
same,L/H ratio of acetylated peptide KGEDFVK(ac)TLK,"SEQ ID NO: 750, Malate dehydrogenase mitochondrial [335], MDH2",0.00 log 2
same,L/H ratio of acetylated peptide EAEFTK(ac)SIAK,"SEQ ID NO: 751, Signal peptidase complex subunit 2 [191], LOC653566, SPCS2",0.00 log 2
same,L/H ratio of acetylated peptide FEDK(ac)TVAYTEQK,"SEQ ID NO: 754, Protein disulfide-isomerase A3 [218], PDIA3",0.00 log 2
same,L/H ratio of acetylated peptide ILEFFGLK(ac)K,"SEQ ID NO: 756, Protein disulfide-isomerase [308], P4HB",0.00 log 2
same,"light to heavy ratio (L/H ratio) of acetylated peptide, log 2 scale","SFEEK(ac)VENLK (SEQ ID NO: 233), Isoform 1 of Tumor protein D52 [180], TPD52",0.00
same,L/H ratio of acetylated peptide LFAK(ac)[…] (SEQ ID NO: 98),"SFPQ [319], log 2 scale, drug vs DMSO",0.00
same,L/H ratio of acetylated peptide […](ac)MILIGR (SEQ ID NO: 100),"SFXN1 [86], log 2 scale, drug vs DMSO",0.00
same,L/H ratio of acetylated peptide,"SFYYK(ac)LR (SEQ ID NO: 395), Fatty acid synthase [2426], FASN",−0.74 log 2
same,L/H ratio of acetylated peptide […](ac)TAVAPIER (SEQ ID NO: 11),"SLC25A5 [23], log 2 scale, drug vs DMSO",−0.47
same,L/H ratio of acetylated peptide […](ac)DK (SEQ ID NO: 103),"SLC25A5 [92], log 2 scale, drug vs DMSO",0.00
same,L/H ratio of acetylated peptide AFFK(ac)GAWSNVLR (SEQ ID NO: 102),"SLC25A5 [272], log 2 scale, drug vs DMSO",0.00
same,L/H ratio of acetylated peptide […](ac)ANVAK (SEQ ID NO: 101),"SLC25A10 [173], log 2 scale, drug vs DMSO",0.00
same,L/H ratio of acetylated peptide TWEK(ac)LLLAAR (SEQ ID NO: 104),"SNORA6, RPSAP15, SNORA62, RPSA [57], log 2 scale, drug vs DMSO",0.00
same,L/H ratio of acetylated peptide,"SQNTK(ac)[…] (SEQ ID NO: 458), Nucleoprotein TPR [713], TPR",−0.45 log 2
same,L/H ratio of acetylated peptide,"SQSCETK(ac)LLDEK (SEQ ID NO: 410), Isoform 3 of Pro-interleukin-16 [277], IL16",−0.53 log 2
same,L/H ratio of acetylated peptide […](ac)YGAIR (SEQ ID NO: 107),"SRSF1 [38], log 2 scale, drug vs DMSO",0.00
same,L/H ratio of acetylated peptide (ac)AEPSAPESK(ac)HK (SEQ ID NO: 108),"STT3B [10], log 2 scale, drug vs DMSO",0.00
same,light to heavy ratio (L/H ratio) of acetylated peptide LQDFK(ac)SFLLK (SEQ ID NO: 582),"Serine hydroxymethyltransferase mitochondrial [469], gene SHMT2, inhibitor:DMSO",0.00 log 2
